Test results taken from PubChem BioAssay AID2060489 (Molecular Pharmacology Branch, DTP, NCI, 2025).

System: 922993-354-T-J3-PDC complex spheroids, viability
Test: Anticancer human tumor 922993-354-T-J3-PDC patient-derived endometrial carcinoma cell line growth inhibition [GQUAD]
Conditions: for IC50: curve of first compound; for viability, T/C: stronger effect = lower value; active means viability on the fitted dose curve at most 10% of control; inactive means the rest
In short: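 Viability of tumor cells grown as complex spheroids with endothelial and stromal cells, exposed to drug combinations. Top concentration at or near clinical Cmax (else 10 microM), diluted in half-log increments.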

[1] = second compound 0.0316 µM, first compound 0.0316 µM
[2] = second compound 0.0316 µM, first compound 0.316 µM
[3] = second compound 0.1 µM, first compound 0.0316 µM
[4] = second compound 0.1 µM, first compound 0.316 µM
[5] = second compound 0.316 µM, first compound 0.0316 µM
[6] = second compound 0.316 µM, first compound 0.316 µM
[7] = second compound 1 µM, first compound 0.0316 µM
[8] = second compound 1 µM, first compound 0.316 µM
[9] = second compound 3.16 µM, first compound 0.0316 µM
[10] = second compound 3.16 µM, first compound 0.316 µM
[11] = second compound 10 µM, first compound 0.0316 µM
[12] = second compound 10 µM, first compound 0.316 µM
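Further: spheroids exposed to compounds for seven days.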
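Wherever viability, T/C is given: 100% = DMSO vehicle control viability.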

Cc1cccc(N(C)C(=O)C2C(O)CCN2c2nc(C)cc(C(F)(F)F)c2C#N)c1 (centres undefined) + Cc1[nH]c2ccc(F)cc2c1-c1nc2c3cccnc3c3ncccc3c2[nH]1
inactive: viability, T/C [1] 111% | viability, T/C (second compound 0.0316 µM, first compound 0.1 µM) 112% | viability, T/C [2] 80.8% | viability, T/C (second compound 0.0316 µM, first compound 1 µM) 94% | viability, T/C (second compound 0.0316 µM, first compound 3.16 µM) 120% | viability, T/C (second compound 0.0316 µM, first compound 10 µM) 82.9% | viability, T/C [3] 108% | viability, T/C (second compound 0.1 µM, first compound 0.1 µM) 122% | viability, T/C [4] 97.7% | viability, T/C (second compound 0.1 µM, first compound 1 µM) 135% | viability, T/C (second compound 0.1 µM, first compound 3.16 µM) 120% | viability, T/C (second compound 0.1 µM, first compound 10 µM) 126% | viability, T/C [5] 90.7% | viability, T/C (second compound 0.316 µM, first compound 0.1 µM) 112% | viability, T/C [6] 74.7% | viability, T/C (second compound 0.316 µM, first compound 1 µM) 104% | viability, T/C (second compound 0.316 µM, first compound 3.16 µM) 87.9% | viability, T/C (second compound 0.316 µM, first compound 10 µM) 99.3% | viability, T/C [7] 112% | viability, T/C (second compound 1 µM, first compound 0.1 µM) 96.5% | viability, T/C [8] 104% | viability, T/C (second compound 1 µM, first compound 1 µM) 114% | viability, T/C (second compound 1 µM, first compound 3.16 µM) 102% | viability, T/C (second compound 1 µM, first compound 10 µM) 97.3% | viability, T/C [9] 123% | viability, T/C (second compound 3.16 µM, first compound 0.1 µM) 121% | viability, T/C [10] 103% | viability, T/C (second compound 3.16 µM, first compound 1 µM) 96.9% | viability, T/C (second compound 3.16 µM, first compound 3.16 µM) 129% | viability, T/C (second compound 3.16 µM, first compound 10 µM) 73.8% | viability, T/C [11] 87% | viability, T/C (second compound 10 µM, first compound 0.1 µM) 94.3% | viability, T/C [12] 109% | viability, T/C (second compound 10 µM, first compound 1 µM) 111% | viability, T/C (second compound 10 µM, first compound 3.16 µM) 95.4% | viability, T/C (second compound 10 µM, first compound 10 µM) 123%
> 10 µM: IC50 (second compound 0.0316 µM) | IC50 (second compound 0.1 µM) | IC50 (second compound 0.316 µM) | IC50 (second compound 1 µM) | IC50 (second compound 3.16 µM) | IC50 (second compound 10 µM)

Cn1ncnc1[C@H]1c2n[nH]c(=O)c3cc(F)cc(c23)N[C@@H]1c1ccc(F)cc1 + Cc1[nH]c2ccc(F)cc2c1-c1nc2c3cccnc3c3ncccc3c2[nH]1
> 0.316 µM: IC50 (second compound 0.0316 µM) | IC50 (second compound 0.1 µM) | IC50 (second compound 0.316 µM) | IC50 (second compound 1 µM) | IC50 (second compound 3.16 µM) | IC50 (second compound 10 µM)
inactive: viability, T/C (second compound 0.0316 µM, first compound 0.000999 µM) 102% | viability, T/C (second compound 0.0316 µM, first compound 0.00316 µM) 100% | viability, T/C (second compound 0.0316 µM, first compound 0.00999 µM) 83.8% | viability, T/C [1] 88% | viability, T/C (second compound 0.0316 µM, first compound 0.0999 µM) 85% | viability, T/C [2] 61.5% | viability, T/C (second compound 0.1 µM, first compound 0.000999 µM) 92.4% | viability, T/C (second compound 0.1 µM, first compound 0.00316 µM) 85.4% | viability, T/C (second compound 0.1 µM, first compound 0.00999 µM) 80.8% | viability, T/C [3] 97.5% | viability, T/C (second compound 0.1 µM, first compound 0.0999 µM) 80.1% | viability, T/C [4] 54.1% | viability, T/C (second compound 0.316 µM, first compound 0.000999 µM) 100% | viability, T/C (second compound 0.316 µM, first compound 0.00316 µM) 98.6% | viability, T/C (second compound 0.316 µM, first compound 0.00999 µM) 108% | viability, T/C [5] 111% | viability, T/C (second compound 0.316 µM, first compound 0.0999 µM) 122% | viability, T/C [6] 64.9% | viability, T/C (second compound 1 µM, first compound 0.000999 µM) 110% | viability, T/C (second compound 1 µM, first compound 0.00316 µM) 82.8% | viability, T/C (second compound 1 µM, first compound 0.00999 µM) 100% | viability, T/C [7] 97.1% | viability, T/C (second compound 1 µM, first compound 0.0999 µM) 93.3% | viability, T/C [8] 69.6% | viability, T/C (second compound 3.16 µM, first compound 0.000999 µM) 118% | viability, T/C (second compound 3.16 µM, first compound 0.00316 µM) 92.6% | viability, T/C (second compound 3.16 µM, first compound 0.00999 µM) 106% | viability, T/C [9] 84.2% | viability, T/C (second compound 3.16 µM, first compound 0.0999 µM) 94.9% | viability, T/C [10] 70.6% | viability, T/C (second compound 10 µM, first compound 0.000999 µM) 111% | viability, T/C (second compound 10 µM, first compound 0.00316 µM) 93% | viability, T/C (second compound 10 µM, first compound 0.00999 µM) 119% | viability, T/C [11] 112% | viability, T/C (second compound 10 µM, first compound 0.0999 µM) 75% | viability, T/C [12] 81.9%
